Source: patent US9896423B2, “Deuterium substituted 1-[2-(2,4-dimethyl-phenylsulfanyl)-phenyl]piperazine compound or derivatives thereof, and pharmaceutical composition and use thereof” (Jiangsu Jibeier Pharmaceutical Co. Ltd., priority 2014, dated 2018)
Values joined by “and” are separate entries in the source; they are usually repeats but may differ in a detail not shown here. Equal entries are not always repeated. Where two headings read alike, the source gives them in different places.

Experiments:
Male SD rats = assay: Rats swimming test; assay type: in vivo
Text: (§1) The following method is used for testing the antidepression effect of the compound of the present application. ICR mice or SD rats, gavaged for two successive weeks, were subjected to mice swimming test, mice tail suspension test and rats swimming test. See below for details of the tests and results.
Male SD rats weighing 200 to 220 g were used and they were fed with sterilized standard feed. The medicaments were the same as those in the mice tail suspension test, but the dosage administered to rats was half of that to mice.
Drug solution preparation: Since the dosage applied on rats was 1 ml/100 g body weight, the medicament solutions used in this test had the same concentrations as those used on mice.
The apparatus was the same as that in the […].
The rats were fasted for 4 hours, put in a round glass tank (ø 18 cm×h 40 cm, with water of 15 cm depth and at a temperature of 25° C.), and were allowed to swim for 15 min. One tank accommodated one rat at a time. The tank was refilled with clean water for another rat after one rat finished swimming. The rats were dried with a hot-air blower after swimming.
The forty rats were divided into 4 groups, each of which has 10 rats, according to the Excel random grouping.
The medicaments were correspondingly administered 1 ml/100 g body weight by gavage, once a day, to the animals in each test group for 14 successive days. The rat swimming test was performed one hour later after the last administration.
(§2) The data was given as “average±standard deviation” (x±s). One-way analysis of variance (ANOVA) was used for data difference statistics. Differences among the groups were determined by P<0.05.

Male ICR mice = assay: Mice tail suspension test; assay type: in vivo
Text: as §1
The animals, medicaments, calculation of dosages to the mice, preparation of drug solution and apparatus are the same as those in the mice swimming test.
The medicaments were correspondingly administered by gavage, once a day, to the animals in the groups for 14 successive days, with the amount of 0.2 ml per 10 g of body weight. The mice were subjected to tail suspension one hour later after the last oral administration. The suspension continued for 6 min.
as §2

[1] = Pharmacokinetic test in rats, gavage administration; assay type: in vivo, SD rats; details: for bioavailability: read-out: F % (absolute bioavailability), Mean ± SD;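 on AUC0-t (area under the plasma concentration-time curve from zero to the last sampling time): plasma area under the curve AUC0-1 in μg·h/L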
Experimental: The preferred compound of the present disclosure was assessed in rats for its pharmacokinetic profile.
SD rats, male and female, weighing 150 to 250 g
Mobile phase: 10 mM ammonium formate aqueous solution:methanol=15:85
The ionization source was electrospray ionization source. The detection mode was positive mode. Multiple reaction monitoring (MRM) was used as the scanning mode. The ion reaction for the quantitative analysis was the following: m/z was 305.2\150.0 for XX, and 256.1\167.1 for diphenhydramine (the internal standard).
XX or YY was orally administered with single dose of 20 mg/kg to six SD rats, one half of which were male and the other half was female. XX or YY was dissolved in 10% hydroxypropyl-β-cyclodextrin. […]
After the blood collection, the tubes were immediately gently turned upside down at least five times to ensure sufficient mixing, and placed on ice. Heparin was added for anticoagulation. The samples were centrifuged at 8000 rpm for 5 min to separate serum from erythrocyte. The serum was transferred with a pipettor to 2 mL polypropylene (PP) tubes, which were marked with the name of the compound and the time points, and stored in a refrigerator at −40° C. before LC-MS analysis. Samples with high concentrations were diluted with rat blank plasma.
2.5 μL of Meth-H2O and 5 μL of the internal standard solution (20 ng/mL, IS) were added to 50 μL of the plasma. Subsequently, 150 μL of methanol was added to the mixture to precipitate protein and the samples were then centrifuged at 13000 rpm for 5 min. The upper organic phase was taken out, filtrated with a 0.22 μM microporous membrane, and 2 μL of the sample was injected for the LC-MS analysis.

[2] = rats, oral 20 mg/kg, individual rats 1-6, 20 mg/kg

MRT inf ([1]; both sexes, SD, rat, plasma, po, 20 mg/kg, rats, oral 20 mg/kg, individual rats 1-6, read-out: MRT0-∞): 4.49 h
half-life ([1]; both sexes, SD, rat, plasma, po, 20 mg/kg, rats, oral 20 mg/kg, individual rats 1-6, read-out: t1/2 (converted)): 3.05 h
AUC(0-t) ([1]; both sexes, SD, rat, plasma, po, 20 mg/kg, rats, oral 20 mg/kg, n = 6, read-out: AUC0-1, Mean ± SD): 489 ± 180 ng·h/mL
AUC(0-inf) ([1]; both sexes, SD, rat, plasma, po, 20 mg/kg, rats, oral 20 mg/kg, n = 6, read-out: AUC0-∞, Mean ± SD): 491 ± 181 ng·h/mL
Cmax ([1]; both sexes, SD, rat, plasma, po, 20 mg/kg, rats, oral 20 mg/kg, n = 6, read-out: Cmax, Mean ± SD): 99.6 ± 42.6 ng/mL
MRT inf ([1]; both sexes, SD, rat, plasma, po, 20 mg/kg, rats, oral 20 mg/kg, n = 6, read-out: MRT0-∞, Mean ± SD): 4.75 ± 0.31 h
half-life ([1]; both sexes, SD, rat, plasma, po, 20 mg/kg, rats, oral 20 mg/kg, n = 6, read-out: t1/2, Mean ± SD (converted)): 2.96 ± 0.43 h
concentration at 10 min ([1]; both sexes, Sprague-Dawley, rat, plasma, oral, 20 mg/kg, 20 mg/kg oral, 10 min (Table 5: 0.167 h), mean of 6 rats, read-out: Concentrations in Plasma of Rats after Oral Administration, Mean ± SD): 19 ± 12.2 ng/mL
concentration at 0.5 h ([1]; both sexes, Sprague-Dawley, rat, plasma, oral, 20 mg/kg, 20 mg/kg oral, 0.5 h, mean of 6 rats, read-out: Concentrations in Plasma of Rats after Oral Administration, Mean ± SD): 54.9 ± 16.8 ng/mL
concentration at 1 h ([1]; both sexes, Sprague-Dawley, rat, plasma, oral, 20 mg/kg, 20 mg/kg oral, 1 h, mean of 6 rats, read-out: Concentrations in Plasma of Rats after Oral Administration, Mean ± SD): 82.6 ± 23.6 ng/mL
concentration at 1.5 h ([1]; both sexes, Sprague-Dawley, rat, plasma, oral, 20 mg/kg, 20 mg/kg oral, 1.5 h, mean of 6 rats, read-out: Concentrations in Plasma of Rats after Oral Administration, Mean ± SD): 89.9 ± 33.7 ng/mL
concentration at 2 h ([1]; both sexes, Sprague-Dawley, rat, plasma, oral, 20 mg/kg, 20 mg/kg oral, 2 h, mean of 6 rats, read-out: Concentrations in Plasma of Rats after Oral Administration, Mean ± SD): 92.1 ± 45.7 ng/mL
concentration at 3 h ([1]; both sexes, Sprague-Dawley, rat, plasma, oral, 20 mg/kg, 20 mg/kg oral, 3 h, mean of 6 rats, read-out: Concentrations in Plasma of Rats after Oral Administration, Mean ± SD): 59.9 ± 30.7 ng/mL
concentration at 4 h ([1]; both sexes, Sprague-Dawley, rat, plasma, oral, 20 mg/kg, 20 mg/kg oral, 4 h, mean of 6 rats, read-out: Concentrations in Plasma of Rats after Oral Administration, Mean ± SD): 53.4 ± 21.6 ng/mL
concentration at 6 h ([1]; both sexes, Sprague-Dawley, rat, plasma, oral, 20 mg/kg, 20 mg/kg oral, 6 h, mean of 6 rats, read-out: Concentrations in Plasma of Rats after Oral Administration, Mean ± SD): 36.4 ± 11.7 ng/mL
concentration at 8 h ([1]; both sexes, Sprague-Dawley, rat, plasma, oral, 20 mg/kg, 20 mg/kg oral, 8 h, mean of 6 rats, read-out: Concentrations in Plasma of Rats after Oral Administration, Mean ± SD): 18.1 ± 5.3 ng/mL
concentration at 10 h ([1]; both sexes, Sprague-Dawley, rat, plasma, oral, 20 mg/kg, 20 mg/kg oral, 10 h, mean of 6 rats, read-out: Concentrations in Plasma of Rats after Oral Administration, Mean ± SD): 9.79 ± 2.62 ng/mL
concentration at 12 h ([1]; both sexes, Sprague-Dawley, rat, plasma, oral, 20 mg/kg, 20 mg/kg oral, 12 h, mean of 6 rats, read-out: Concentrations in Plasma of Rats after Oral Administration, Mean ± SD): 5.12 ± 1.67 ng/mL
concentration at 14 h ([1]; both sexes, Sprague-Dawley, rat, plasma, oral, 20 mg/kg, 20 mg/kg oral, 14 h, mean of 6 rats, read-out: Concentrations in Plasma of Rats after Oral Administration, Mean ± SD): 4.08 ± 1.66 ng/mL
concentration at 24 h ([1]; both sexes, Sprague-Dawley, rat, plasma, oral, 20 mg/kg, 20 mg/kg oral, 24 h, mean of 6 rats, read-out: Concentrations in Plasma of Rats after Oral Administration, Mean ± SD): 0.64 ± 0.32 ng/mL
bioavailability ([1]; both sexes, Sprague-Dawley, rat, plasma, oral, 20 mg/kg, rats, oral 20 mg/kg vs iv 2 mg/kg, n = 6): 7.51 ± 2.77%
AUC(0-t) ([1]; both sexes, Sprague-Dawley, rat, plasma, po, 20 mg/kg, gavage administration of 20 mg/kg, rats, read-out: AUC0-t in the rats' plasma): 489 ± 180 ng·h/mL
bioavailability ([1]; both sexes, Sprague-Dawley, rat, plasma, po, 20 mg/kg, rats, oral 20 mg/kg vs iv 2 mg/kg, n = 6): 7.51 ± 2.77%
SMILES: Cc1ccc(Sc2ccccc2N2CCNCC2)c(C)c1 [YY, 1-[2-(2,4-dimethyl-phenylsulfanyl)-phenyl]piperazine]
effect on length of time that the rats stopped swimming vs blank control (Male SD rats; 1.5 mg/kg gavage, 14 days): did not shorten
Duration without Move within 5 min (Male SD rats; rats swimming, gavage 14 days, 1.5 mg/kg, n = 10, x ± s): 267.8 ± 27.0 s
effect on length of time that the tail-suspended mice stopped moving vs blank control (Male ICR mice; 3 mg/kg gavage, two successive weeks): did not shorten
Duration without Move within 6 min (Male ICR mice; mice tail suspension, gavage 14 days, 3 mg/kg, n = 10, x ± s): 284.9 ± 51.2 s
Concentrations in Plasma of Rats after Oral Administration ([1]; 20 mg/kg oral, 10 min (Table 5: 0.167 h) after administration, individual rats 1-6): 17.9 ng/mL and 9.42 ng/mL and 28.1 ng/mL and 14.3 ng/mL and 38.4 ng/mL and 6.11 ng/mL
Concentrations in Plasma of Rats after Oral Administration ([1]; 20 mg/kg oral, 0.5 h, individual rats 1-6): 86.5 ng/mL and 38.1 ng/mL and 52.3 ng/mL and 49.7 ng/mL
Concentrations in Plasma of Rats after Oral Administration ([1]; 20 mg/kg oral, 1 h, individual rats 1-6): 123 ng/mL and 65.5 ng/mL and 77.4 ng/mL and 81.1 ng/mL and 93.2 ng/mL and 55.6 ng/mL
Concentrations in Plasma of Rats after Oral Administration ([1]; 20 mg/kg oral, 1.5 h, individual rats 1-6): 154 ng/mL and 85.2 ng/mL and 82.9 ng/mL and 89.2 ng/mL and 73.2 ng/mL and 54.9 ng/mL
Concentrations in Plasma of Rats after Oral Administration ([1]; 20 mg/kg oral, 2 h, individual rats 1-6): 182 ng/mL and 68.3 ng/mL and 91.8 ng/mL and 81.9 ng/mL and 72 ng/mL and 56.4 ng/mL
Concentrations in Plasma of Rats after Oral Administration ([1]; 20 mg/kg oral, 3 h, individual rats 1-6): 120 ng/mL and 48.2 ng/mL and 58.3 ng/mL and 55.9 ng/mL and 42.9 ng/mL and 34.2 ng/mL
Concentrations in Plasma of Rats after Oral Administration ([1]; 20 mg/kg oral, 4 h, individual rats 1-6): 93.6 ng/mL and 46.9 ng/mL and 52.9 ng/mL and 55.2 ng/mL and 42.1 ng/mL and 29.9 ng/mL
Concentrations in Plasma of Rats after Oral Administration ([1]; 20 mg/kg oral, 6 h, individual rats 1-6): 57.4 ng/mL and 37.7 ng/mL and 36.7 ng/mL and 33.5 ng/mL and 30.5 ng/mL and 22.4 ng/mL
Concentrations in Plasma of Rats after Oral Administration ([1]; 20 mg/kg oral, 8 h, individual rats 1-6): 27.5 ng/mL and 16.7 ng/mL and 17.7 ng/mL and 16.3 ng/mL and 18.8 ng/mL and 11.3 ng/mL
Concentrations in Plasma of Rats after Oral Administration ([1]; 20 mg/kg oral, 10 h, individual rats 1-6): 14.5 ng/mL and 8.39 ng/mL and 10.9 ng/mL and 8.32 ng/mL and 9.4 ng/mL and 7.24 ng/mL
Concentrations in Plasma of Rats after Oral Administration ([1]; 20 mg/kg oral, 12 h, individual rats 1-6): 7.3 ng/mL and 4.87 ng/mL and 4.29 ng/mL and 7.01 ng/mL and 4.1 ng/mL and 3.17 ng/mL
Concentrations in Plasma of Rats after Oral Administration ([1]; 20 mg/kg oral, 14 h, individual rats 1-6): 7.19 ng/mL and 2.5 ng/mL and 3.69 ng/mL and 4.35 ng/mL and 3.79 ng/mL and 2.95 ng/mL
Concentrations in Plasma of Rats after Oral Administration ([1]; 20 mg/kg oral, 24 h, individual rats 1-6): 0.728 ng/mL and 0.431 ng/mL and 0.716 ng/mL and 0.374 ng/mL and 0.394 ng/mL and 1.21 ng/mL
F % ([1]; rats, oral 20 mg/kg vs iv 2 mg/kg, individual rats 1-6): 12.83% and 6.36% and 7.40% and 7.17% and 6.55% and 4.75%
AUC0-t (area under the plasma concentration-time curve from zero to the last sampling time) [1, 2]: 836.1 ng·h/mL and 415.8 ng·h/mL and 480.4 ng·h/mL and 467.8 ng·h/mL and 427.0 ng·h/mL and 309.2 ng·h/mL
AUC0-∞ [1, 2]: 839.3 ng·h/mL and 416.2 ng·h/mL and 484 ng·h/mL and 469.3 ng·h/mL and 428.7 ng·h/mL and 310.6 ng·h/mL
Cmax [1, 2]: 182.0 ng/mL and 85.2 ng/mL and 91.8 ng/mL and 89.2 ng/mL and 93.2 ng/mL and 56.4 ng/mL
MRT0-∞ [1, 2]: 4.65 h and 4.73 h and 4.67 h and 4.60 h and 5.35 h
t1/2 [1, 2]: 2.20 h and 3.50 h and 2.83 h and 3.06 h and 3.10 h
